Laboratory results published in patent US20230348426A1, “OXOPYRROLIDINE FPR2 AGONISTS” (Bristol-Myers Squibb Company, priority 2020, published 2023).

Tests used:
[1] = biological target: human FPR2 (Homo sapiens (Human), UniProt P25090); test: FPR2 cyclic adenosine monophosphate (cAMP) assay; type: cell-based; conditions: CHO cells overexpressing human FPR2; forskolin 5 µM; inhibition of cAMP production; read-out: hFPR2 cAMP2 EC50
Summary of the method: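 Inhibition of forskolin-driven (5 µM) cAMP, with 200 µM IBMX, measured in human FPR2-expressing CHO cells, 2,000 per well, 30 min at room temperature; compounds tested 0.020 nM to 100 µM in 1% DMSO. HTRF 665/590 ratio converted to cAMP via calibration curve, then 4-parameter fit.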

[2] = biological target: human FPR1 (Homo sapiens (Human), UniProt P21462); test: FPR1 cyclic adenosine monophosphate (cAMP) assay; type: cell-based; conditions: CHO cells overexpressing human FPR1; forskolin 10 µM; inhibition of cAMP production; read-out: hFPR1 cAMP EC50
Summary of the method: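 Human FPR1-expressing CHO cells were used at 4,000 per well, with compound at 0.020 nM–100 µM in 1% DMSO. Potency came from a 4-parameter logistic fit.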

Sequence of human FPR2 (P25090 whole entry): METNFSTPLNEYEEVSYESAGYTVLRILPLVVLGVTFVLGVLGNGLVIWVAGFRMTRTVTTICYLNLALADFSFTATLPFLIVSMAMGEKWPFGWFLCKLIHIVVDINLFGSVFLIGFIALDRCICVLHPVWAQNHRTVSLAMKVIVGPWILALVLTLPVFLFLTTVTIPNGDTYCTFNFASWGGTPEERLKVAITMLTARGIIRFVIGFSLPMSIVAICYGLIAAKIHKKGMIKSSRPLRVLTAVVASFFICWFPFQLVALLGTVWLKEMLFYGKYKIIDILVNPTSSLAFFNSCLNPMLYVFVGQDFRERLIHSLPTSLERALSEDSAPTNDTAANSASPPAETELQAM
Sequence of human FPR1 (P21462 whole entry): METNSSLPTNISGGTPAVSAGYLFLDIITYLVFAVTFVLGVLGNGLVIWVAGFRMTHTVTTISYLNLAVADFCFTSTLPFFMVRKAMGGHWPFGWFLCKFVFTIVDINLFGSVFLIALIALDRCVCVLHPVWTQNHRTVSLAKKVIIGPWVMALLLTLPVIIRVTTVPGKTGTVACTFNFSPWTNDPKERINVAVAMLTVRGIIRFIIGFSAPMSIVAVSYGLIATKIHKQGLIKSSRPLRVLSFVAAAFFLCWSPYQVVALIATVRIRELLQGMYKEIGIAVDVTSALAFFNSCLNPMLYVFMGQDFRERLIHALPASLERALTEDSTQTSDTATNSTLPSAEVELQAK

Row | SMILES | EC50 [1] [nM] | EC50 [2] [nM]
1 | COc1cc(F)c([C@@H]2CN(c3ccc[nH]c3=O)C(=O)[C@H]2NC(=O)c2ccc(OC(F)F)cc2)c(F)c1 [Example 95] | 2.7 | 160
2 | COCC(C(=O)N(C)C)n1ccc(C)c(N2C[C@@H](c3ccc(OC)cc3)[C@H](NC(=O)c3ccc(OC(F)F)cc3)C2=O)c1=O (some centres unmarked) [Example 295] | 8.9 | 0.6
3 | COc1cc(F)c([C@@H]2CN(c3c(C)ccn(C)c3=O)C(=O)[C@H]2NC(=O)c2ccc(OC(F)F)cc2)c(F)c1 [Example 310] | 10 | 67
4 | COc1cc(F)c([C@@H]2CN(c3c(C)ccn([C@H]4COC[C@@H]4O)c3=O)C(=O)[C@H]2NC(=O)c2ccc(Cl)cc2)c(F)c1 [Example 623] | 11.5 | 160
5 | COc1cc(F)c([C@@H]2CN(c3cccn(C(F)F)c3=O)C(=O)[C@H]2NC(=O)c2ccc(Cl)cc2)c(F)c1 [Example 94] | 2.7 | 95
6 | COc1cc(F)c([C@@H]2CN(c3ccc(F)c(N4C[C@@H]5C[C@H]4CN5C)n3)C(=O)[C@H]2NC(=O)c2ccc(OC(F)F)cc2)c(F)c1 [Example 569] | 1.2 | 1600
7 | COc1cc(F)c([C@@H]2CN(c3cccn(CC4CC(F)(F)C4)c3=O)C(=O)[C@H]2NC(=O)c2ccc(OC(F)F)cc2)c(F)c1 [Example 96] | 2.7 | 46
8 | COc1cc(F)c([C@@H]2CN(c3cccc(N4C[C@H]5C[C@@H]4CO5)n3)C(=O)[C@H]2NC(=O)c2ccc(OC(F)F)cc2)c(F)c1 [Example 211] | 5.5 | 25
9 | COc1cc(F)c([C@@H]2CN(c3cccc(C4CCN(C)CC4)n3)C(=O)[C@H]2NC(=O)c2ccc(OC(F)F)cc2)c(F)c1 [Example 536] | 2.1 | 650
10 | COc1cc(F)c([C@@H]2CN(c3nc(N4C(=O)C5CCCC54)ccc3F)C(=O)[C@H]2NC(=O)c2ccc(OC(F)F)cc2)c(F)c1 (some centres unmarked) [Example 66] | 1.8 | 49
11 | COCC(CO)n1ccc(C)c(N2C[C@@H](c3ccc(OC)cc3)[C@H](NC(=O)c3ccc(OC(F)(F)F)cc3)C2=O)c1=O (some centres unmarked) [Example 449] | 3.5 | 0.2
12 | COc1cc(F)c([C@@H]2CN(c3cccc(C4CCCNC4)n3)C(=O)[C@H]2NC(=O)c2ccc(OC(F)F)cc2)c(F)c1 (some centres unmarked) [Example 719] | 1.4 | 1900
13 | COc1ccc([C@@H]2CN(c3c(C)ccn(CC(F)F)c3=O)C(=O)[C@H]2NC(=O)c2ccc(Cl)cc2)c(F)c1 [Example 377] | 1.6 | 5
14 | COc1cc(F)c([C@@H]2CN(c3ccc(F)c(N4C[C@@H]5C[C@H]4CN5C)n3)C(=O)[C@H]2NC(=O)c2ccc(OC(F)(F)F)cc2)c(F)c1 [Example 572] | 3.5 | 1600
15 | COc1cc(CO)nc(N2C[C@@H](c3c(F)cc(OC)cc3F)[C@H](NC(=O)c3ccc(OC(F)(F)F)cc3)C2=O)c1 [Example 587] | 1.1 | 600
16 | COc1cc(F)c([C@@H]2CN(c3c4c(cn(CCO)c3=O)CCCC4)C(=O)[C@H]2NC(=O)c2ccc(OC(F)F)cc2)c(F)c1 [Example 646] | 16 | 670
17 | COc1cc(F)c([C@@H]2CN(c3cncn(CC(O)C(F)(F)F)c3=O)C(=O)[C@H]2NC(=O)c2ccc(Cl)cc2)c(F)c1 (some centres unmarked) [Example 486] | 4.3 | 36
18 | CCn1ccc(C)c(N2C[C@@H](c3ccc(OC)cc3F)[C@H](NC(=O)c3ccc(OC(F)F)cc3)C2=O)c1=O [Example 165] | 4.2 | 1.7
19 | COCCn1cc(C)c(C)c(N2C[C@@H](c3c(F)cc(OC)cc3F)C(NC(=O)c3ccc(Cl)cc3)C2=O)c1=O (some centres unmarked) [Example 641] | 2.8 | 1000

Row | SMILES | EC50 [1] [nM] | EC50 [2] [nM]
20 | COc1cc(F)c([C@@H]2CN(c3ccccc3P(C)(C)=O)C(=O)[C@H]2NC(=O)c2ccc(OC(F)(F)F)cc2)c(F)c1 [Example 19] | 24 | 540
21 | COc1cc(F)c([C@@H]2CN(c3nccc(N4CCN(C)CC4)c3C#N)C(=O)[C@H]2NC(=O)c2ccc(Cl)cc2)c(F)c1 [Example 287] | 8.6 | 4600
22 | COc1cc(F)c([C@@H]2CN(c3cccc(C4CCCNC4)n3)C(=O)[C@H]2NC(=O)c2ccc(OC(F)F)cc2)c(F)c1 (some centres unmarked) [Example 718] | 0.9 | 840
23 | COc1cc(F)c([C@@H]2CN(c3c(C)ccn(C(F)(F)CO)c3=O)C(=O)[C@H]2NC(=O)c2ccc(OC(F)(F)F)cc2)c(F)c1 [Example 490] | 1 | 1
24 | COc1cc(F)c([C@@H]2CN(c3ccc(CO)[nH]c3=O)C(=O)[C@H]2NC(=O)c2ccc(OC(F)(F)F)cc2)c(F)c1 [Example 240] | 6.6 | 130
25 | COc1cc(N2C[C@@H]3C[C@H]2CN3C)nc(N2C(=O)[C@@H](NC(=O)c3ccc(OC(F)F)cc3)[C@H](c3c(F)cc(OC)cc3F)[C@@H]2C)c1 [Example 51] | 1.2 | 5500
26 | COc1cc(F)c([C@@H]2CN(c3cc(P(C)(C)=O)ccn3)C(=O)[C@H]2NC(=O)c2ccc(OC(F)(F)F)cc2)c(F)c1 [Example 13] | 45 | 85
27 | COc1cc(F)c([C@@H]2CN(c3nc(N4C(=O)CC[C@H]4CO)ccc3F)C(=O)[C@H]2NC(=O)c2ccc(OC(F)(F)F)cc2)c(F)c1 [Example 246] | 6.9 | 280
28 | COc1cc(F)c([C@@H]2CN(Cc3ccccc3P(C)(C)=O)C(=O)[C@H]2NC(=O)c2ccc(OC(F)F)cc2)c(F)c1 [Example 18] | 37 | 200
29 | COc1cc(F)c([C@@H]2CN(c3nccc(N4CCN(S(C)(=O)=O)CC4)c3C(F)(F)F)C(=O)[C@H]2NC(=O)c2ccc(OC(F)F)cc2)c(F)c1 [Example 282] | 8.3 | 700
30 | COc1cc(N2C[C@@H]3C[C@H]2CN3C)nc(N2C(=O)[C@@H](NC(=O)c3ccc(OC(F)F)cc3)[C@H](c3c(F)cc(OC)cc3F)[C@H]2C)c1 [Example 71] | 1.9 | 290
31 | COc1ccc([C@@H]2CN(c3cccn(CC(O)C(F)(F)F)c3=O)C(=O)[C@H]2NC(=O)c2ccc(OC(F)F)cc2)cc1 (some centres unmarked) [Example 371] | 1.9 | 8
32 | COc1cc(F)c([C@@H]2CN(c3ncccc3F)C(=O)[C@H]2NC(=O)c2ccc(OC(F)F)cc2)c(F)c1 [Example 33] | 5 | 1610
33 | COCC(CO)n1cccc(N2C[C@@H](c3ccc(Cl)cc3)[C@H](NC(=O)c3ccc(OC(F)F)cc3)C2=O)c1=O (some centres unmarked) [Example 307] | 9.9 | 1.8
34 | COc1cc(F)c([C@@H]2CN(c3c(C)ccn(CC4CCO4)c3=O)C(=O)[C@H]2NC(=O)c2ccc(Cl)cc2)c(F)c1 (some centres unmarked) [Example 614] | 6 | 33
35 | COc1cc(F)c([C@@H]2CN(c3ccc(CO)n(C)c3=O)C(=O)[C@H]2NC(=O)c2ccc(OC(F)(F)F)cc2)c(F)c1 [Example 227] | 6.2 | 240
36 | COCCn1ccc(C)c(N2C[C@@H](c3ccc(Cl)cc3)[C@H](NC(=O)c3ccc(OC(F)(F)F)cc3)C2=O)c1=O [Example 339] | 23 | 0.6
37 | COc1cc(F)c([C@@H]2CN(c3ncccc3P(C)(C)=O)C(=O)[C@H]2NC(=O)c2ccc(OC(F)F)cc2)c(F)c1 [Example 25] | 35 | > 10000
